Here are results for 8 molecules from patent US20220169643A1, “ESTROGEN RECEPTOR DEGRADING PROTACS” (AstraZeneca AB, priority 2019, published 2022).

The test addresses T1, Estrogen Receptor Alpha Ligand binding domain (ER alpha-LBD (GST)) (Homo sapiens, UniProt P03372).
T1 construct: made in house
T1 sequence (P03372 307-554): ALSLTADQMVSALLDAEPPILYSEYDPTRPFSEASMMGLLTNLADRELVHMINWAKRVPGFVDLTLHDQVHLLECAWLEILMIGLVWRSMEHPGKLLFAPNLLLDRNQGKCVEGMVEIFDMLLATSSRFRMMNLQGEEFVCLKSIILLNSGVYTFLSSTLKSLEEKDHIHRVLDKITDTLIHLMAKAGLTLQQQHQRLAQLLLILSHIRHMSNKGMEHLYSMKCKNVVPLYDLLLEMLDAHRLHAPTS
Put plainly: ERα Binding Assay (LanthaScreen TR-FRET competition). The conditions noted are these: competitive displacement of Fluormone ES2 tracer from recombinant human ER alpha-LBD (residues 307-554), 4 hours at room temperature. Here is the method:
The ability of compounds to bind to isolated Estrogen Receptor Alpha Ligand binding domain (ER alpha-LBD (GST)) was assessed in competition assays using a LanthaScreen™ Time-Resolved Fluorescence Resonance Energy Transfer (TR-FRET) detection end-point. For the LanthaScreen TR-FRET endpoint, a suitable fluorophore (Fluormone ES2, ThermoFisher, Product code P2645) and recombinant human Estrogen Receptor alpha ligand binding domain, residues 307-554 (expressed and purified in-house) were used to measure compound binding. The assay principle is that ER alpha-LBD (GST) is added to a fluorescent ligand to form a receptor/fluorophore complex. A terbium-labelled anti-GST antibody (Product code PV3551) is used to indirectly label the receptor by binding to its GST tag, and competitive binding is detected by a test compound's ability to displace the fluorescent ligand, resulting in a loss of TR-FRET signal between the Th-anti-GST antibody and the tracer. The assay was performed as follows with all reagent additions carried out using the Beckman Coulter BioRAPTR FRD microfluidic workstation: • 1. Acoustic dispense 120 nL of the test compound into a black low volume 384 well assay plates. • 2. Prepare 1×ER alpha-LBD/Tb-anti-GST Ab in ES2 screening buffer and incubate for 15 minutes. • 3. Dispense 6 μL of the 1×[…]/Th-anti-GST Ab reagent into each well of the assay plate followed by 6 μL of Fluorophore reagent into each well of the assay plate • 4. Cover the assay plate to protect the reagents from light and evaporation, and incubate at room temperature for 4 hours. • 5. Excite at 337 nm and measure the fluorescent emission signal of each well at 490 nm and 520 nm using the BMG PheraSTAR.
Compounds were dosed directly from a compound source microplate containing serially diluted compound (4 wells containing 10 mM, […] and 10 nM final compound respectively) to an assay microplate using the Labcyte Echo 550. The Echo 550 is a liquid handler that uses acoustic technology to perform direct microplate-to-microplate transfers of DMSO compound solutions and the system can be programmed to transfer multiple small nL volumes of compound from the different source plate wells to give the desired serial dilution of compound in the assay which is then back-filled to normalise the DMSO concentration across the dilution range.
In total 120 nL of compound plus DMSO were added to each well and compounds were tested in a 12-point concentration response format over a final compound concentration range of 10, 2.917, 1.042, 0.2083, 0.1, 0.0292, 0.0104, 0.002083, 0.001, 0.0002917, 0.0001042, and 0.00001 μM respectively. TR-FRET dose response data obtained with each compound was exported into a suitable software package (such as Origin or Genedata) to perform curve fitting analysis. Competitive ER alpha binding was expressed as an IC50 value. This was determined by calculation of the concentration of compound that was required to give a 50% reduction in tracer compound binding to ER alpha-LBD.
On the technique in general: In TR-FRET formats the signal depends on donor and acceptor labels being close together.

For the molecule “3-[5-(9-{2-[(1S,3r)-3-({5-[(1R,3R)-2-(2-fluoro-2-methylpropyl)-3-methyl-2,3,4,9-tetrahydro-1H-beta-carbolin-1-yl]pyrimidin-2-yl}oxy)cyclobutyl]ethyl}-3,9-diazaspiro[5.5]undecan-3-yl)-1-oxo-1,3-dihydro-2H-isoindol-2-yl]piperidine-2,6-dione [Example 23]”, the IC50 (commonly the midpoint of a concentration-inhibition curve) was determined as 4.4 nM.

As to `C[C@@H]1Cc2c([nH]c3ccccc23)[C@@H](c2cnc(N3CCC(CN4CCC5(CC4)CCN(c4ccc6c(c4)CN(C4CCC(=O)NC4=O)C6=O)CC5)CC3)nc2)N1CC(C)(C)F` (mixture of isomers) [Example 7, 3-(5-{9-[(1-{5-[(1R,3R)-2-(2-fluoro-2-methylpropyl)-3-methyl-2,3,4,9-tetrahydro-1H-beta-carbolin-1-yl]pyrimidin-2-yl}piperidin-4-yl)methyl]-3,9-diazaspiro[5.5]undecan-3-yl}-1-oxo-1,3-dihydro-2H-isoindol-2-yl)piperidine-2,6-dione], the IC50 was found to be 4.7 nM.

With `C[C@@H]1Cc2c([nH]c3ccccc23)[C@@H](c2cnc(N3CCC(CN4CCN(c5ccc6c(c5)CN(C5CCC(=O)NC5=O)C6=O)CC4)CC3)nc2)N1CC(C)(C)F` (stereo partly drawn) [Example 1, 3-[5-[4-[[1-[5-[(1R,3R)-2-(2-Fluoro-2-methyl-propyl)-3-methyl-1,3,4,9-tetrahydropyrido[3,4-b]indol-1-yl]pyrimidin-2-yl]-4-piperidyl]methyl]piperazin-1-yl]-1-oxo-isoindolin-2-yl]piperidine-2,6-dione], the half-maximal inhibitory concentration (IC50) was 3.1 nM.

`C[C@@H]1Cc2c([nH]c3ccccc23)[C@@H](c2cnc(N3CCC(CCN4CCN(c5ccc6c(c5)CN(C5CCC(=O)NC5=O)C6=O)CC4)CC3)nc2)N1CC(C)(C)F` (stereo partly drawn) [Example 2, 3-[5-[4-[2-[1-[5-[(1R,3R)-2-(2-Fluoro-2-methyl-propyl)-3-methyl-1,3,4,9-tetrahydropyrido[3,4-b]indol-1-yl]pyrimidin-2-yl]-4-piperidyl]ethyl]piperazin-1-yl]-1-oxo-isoindolin-2-yl]piperidine-2,6-dione]: the IC50 turned out to be 3.3 nM.

For the molecule `C[C@@H]1Cc2c([nH]c3ccccc23)[C@@H](c2cnc(N3CCC(CN4CCN(c5ccc6c(c5)C(=O)N(C5CCC(=O)NC5=O)C6=O)CC4)CC3)nc2)N1CC(C)(C)F` (stereo partly drawn) [Example 3, 2-[2,6-Dioxo3-piperidyl]-5-[4-[[1-[5-[(1R,3R)-2-(2-fluoro-2-methyl-propyl)-3-methyl-1,3,4,9-tetrahydropyrido[3,4-b]indol-1-yl]pyrimidin-2-yl]-4-piperidyl]methyl]piperazin-1-yl]isoindoline-1,3-dione], the IC50 is 3.7 nM.

For `C[C@@H]1Cc2c([nH]c3ccccc23)[C@@H](c2cnc(N3CCC(OCCN4CCN(c5ccc6c(c5)CN(C5CCC(=O)NC5=O)C6=O)CC4)CC3)nc2)N1CC(C)(C)F` (stereo partly drawn) [Example 4, 3-[5-[4-[2-[[1-[5-[(1R,3R)-2-(2-Fluoro-2-methyl-propyl)-3-methyl-1,3,4,9-tetrahydropyrido[3,4-b]indol-1-yl]pyrimidin-2-yl]-4-piperidyl]oxy]ethyl]piperazin-1-yl]-1-oxo-isoindolin-2-yl]piperidine-2,6-dione], the IC50 is 2.1 nM.

As for `C[C@@H]1Cc2c([nH]c3ccccc23)[C@@H](c2c(F)cc(OCCCCCN3CCN(c4ccc5c(c4)CN(C4CCC(=O)NC4=O)C5=O)CC3)cc2F)N1CC(C)(C)F` (stereo partly drawn) [Example 5, 3-[5-[4-[5-[3,5-Difluoro-4-[(1R,3R)-2-(2-fluoro-2-methyl-propyl)-3-methyl-1,3,4,9-tetrahydropyrido[3,4-b]indol-1-yl]phenoxy]pentyl]piperazin-1-yl]-1-oxo-isoindolin-2-yl]piperidine-2,6-dione], the IC50 turned out to be 3.7 nM.

For `C[C@@H]1Cc2c([nH]c3ccccc23)[C@@H](c2cnc(N3CCC(CN4CCN(CC5CCN(c6ccc7c(c6)CN(C6CCC(=O)NC6=O)C7=O)CC5)CC4)CC3)nc2)N1CC(C)(C)F` (some centres unmarked) [Example 6], the IC50 amounted to 5.6 nM.
